Reference: patent US20040023884A1, “Biologically active peptides from functional domains of bactericidal/permeability-increasing protein and uses thereof” (priority 1993, published 2004)
Square brackets hold non-standard residues; d marks the D form. Ends that are not written are not given here. 1Nal = N[C@@H](Cc1cccc2ccccc12)C(=O)O; d1Nal = N[C@H](Cc1cccc2ccccc12)C(=O)O; 3Pal = N[C@@H](Cc1cccnc1)C(=O)O

How the values were obtained:
[1] = tested on: rough mutant E. coli J5 bacteria; assay: Radial diffusion bactericidal assay, E. coli J5; type: cell-based; conditions: radial diffusion; for pmol added to well to achieve a 30 mm^2 bactericidal zone, E. coli J5: PROBIT analysis, E. coli J5 (rough)
Procedure: BPI proteolytic fragments produced according to Example 1 were screened for bactericidal effects using rough mutant E. coli J5 bacteria in a radial diffusion assay. Specifically, an overnight culture of E. coli J5 was diluted 1:50 into fresh tryptic soy broth and incubated for 3 hours at 37° C. to attain log phase growth of the culture. Bacteria were then pelleted at 3,000 rpm for 5 minutes in a Sorvall RT6000B centrifuge (Sorvall Instruments, Newton, Conn.). 5 mL of 10 mM sodium phosphate buffer (pH 7.4) was added and the preparation was re-pelleted. […] The bacteria were diluted to 4×10^6 CFU/mL in 10 mL of molten underlayer agarose (at approximately 45° C.) and inverted repeatedly to mix in 15 mL polypropylene tubes conventionally used for this purpose.
The entire contents of such tubes were then poured into a level square petri dish and distributed evenly by rocking the dish side-to-side. […] A series of wells were then punched into the hardened agarose using a sterile 3 mm punch attached to a vacuum apparatus. The punch was sterilized with 100% alcohol and allowed to air dry prior to use to avoid contaminating the bacterial culture.
5 or 10 μL of each of the BPI fragments were carefully pipetted into each well. As a negative control, dilution buffer (pH 8.3) was added to a separate well, and rBPI23 at concentrations of 5 μg/mL and 1 μg/mL were also added as positive controls. Each plate was incubated at 37° C. for 3 hours, and then 10 mL of molten overlayer agarose (at approximately 45° C.) was added into the level petri dish, allowed to harden and incubated overnight at 37° C. […] The bacterial zones were measured with a micrometer.

[2] = tested on: E. coli 0111:B4 (smooth) bacteria; assay: Radial diffusion bactericidal assay, E. coli 0111:B4; type: cell-based; conditions: radial diffusion; PROBIT analysis; E. coli O111:B4 (smooth)
[3] = 3H-heparin binding assay (affinity and capacity); conditions: for Heparin Capacity: heparin bound at saturation; for Kd: read-out: Heparin Affinity
Procedure: Briefly, each fragment was added to wells of a 96-well microtiter plate having a polyvinylidene difluoride membrane (Immunobilon-P, Millipore, Bedford, Mass.) disposed at the bottom of the wells. […] Positive control wells contained varying amounts of rBPI23. […] DuPont-NEN, Wilmington, Del.) were made in the blocking buffer and incubated in the BPI peptide-containing wells for one hour at 4° C. The unbound heparin was aspirated and the wells were washed three times with blocking buffer, dried and removed for quantitation in a liquid scintillation counter (Model 1217, LKB, Gaithersburg, Md.). Although BSA in the blocking buffer did show a low affinity and capacity to bind heparin, this was considered physiologically irrelevant and the background was routinely subtracted from the test compound signal.

Staphylococcus aureus = assay: Radial diffusion bactericidal assay, Staphylococcus aureus; type: cell-based; conditions: radial diffusion; PROBIT analysis; S. aureus

Substance | pmol added to well to achieve a 30 mm^2 bactericidal zone, E. coli J5 [1] | pmol added to well to achieve a 30 mm^2 bactericidal zone, E. coli O111:B4 [2] | Heparin Capacity [3] [ng] | Kd [3] [nM] | pmol added to well to achieve a 30 mm^2 bactericidal zone, S. aureus (Staphylococcus aureus) | bactericidal activity (in words) ([1]; E. coli J5) | heparin binding capacity (in words) [3]
ADADIKISGICWKAQKRFLK [BPI.71] | 2,296.94 pmol | b (no detectable activity up to 5 μg/well) | 158.9 | 75.6 | b (no detectable activity up to 5 μg/well) |  | 
CIKISGKWKAQKRFLK [BPI.58] | 1,050.11 pmol | b (no detectable activity up to 5 μg/well) | 231.2 | 194 | b (no detectable activity up to 5 μg/well) | highly bactericidal | extremely high heparin capacity
GWLIQLFHKKIESALRNKMNS [BPI.55] | 299.36 pmol | 3,702.60 pmol | 166.1 | 368 | 28,204.45 pmol |  | 
IAISGKWKAQKRFLA [BPI.60] | 3,782.80 pmol | b (no detectable activity up to 5 μg/well) | 120.3 | 64.8 | b (no detectable activity up to 5 μg/well) |  | 
IKISGAWAAQKRFLK [BPI.59] | 3,718.00 pmol | b (no detectable activity up to 5 μg/well) | 106.7 | 175 | b (no detectable activity up to 5 μg/well) |  | 
IKISGKAβ-(1-naphthyl)KAQKRFLK (IKISGK[1Nal]KAQKRFLK) [BPI.67] | 2,424.30 pmol | b (no detectable activity up to 5 μg/well) | 250.4 | 108 | b (no detectable activity up to 5 μg/well) |  | 
IKISGKAβ-(3-pyridyl)KAQKRFLK (IKISGK[3Pal]KAQKRFLK) [BPI.70] | b (no detectable activity up to 5 μg/well) | b (no detectable activity up to 5 μg/well) | 59.2 | 145 | b (no detectable activity up to 5 μg/well) |  | 
KSKVGAD-β-(1-naphthyl)LIQLFHKK (KSKVG[d1Nal]LIQLFHKK) [BPI.129] | 1,685.10 pmol | b (no detectable activity up to 5 μg/well) |  |  | b (no detectable activity up to 5 μg/well) |  | 
KSKVGFDLIQLPHKK [BPI.128] | 2,271.14 pmol | b (no detectable activity up to 5 μg/well) |  |  | b (no detectable activity up to 5 μg/well) |  | 
KSKVGFLIQLFHKK [BPI.127] | 406.01 pmol | b (no detectable activity up to 5 μg/well) |  |  | b (no detectable activity up to 5 μg/well) |  | 
KSKVGW(p-amino)LIFLFHKK (KSKVG[p‑amino‑tryptophan]LIFLFHKK) [BPI.123] | 247.20 pmol | 6,651.23 pmol |  |  | b (no detectable activity up to 5 μg/well) |  | 
KSKVGWDLIQLFHKK [BPI.126] | 1,979.97 pmol | b (no detectable activity up to 5 μg/well) |  |  | b (no detectable activity up to 5 μg/well) |  | 
KSKVGWLIQFFHKK [BPI.113] | 270.66 pmol | 8,671.73 pmol |  |  | b (no detectable activity up to 5 μg/well) |  | 
KSKVGWLIQLAβ-(1-naphthyl)HKK (KSKVGWLIQL[1Nal]HKK) [BPI.109] | 308.60 pmol | 44,875.41 pmol |  |  | b (no detectable activity up to 5 μg/well) |  | 
KSKVGWLIQLFAβ-(1-naphthyl)KK (KSKVGWLIQLF[1Nal]KK) [BPI.110] | 812.33 pmol | 7,952.04 pmol |  |  | b (no detectable activity up to 5 μg/well) |  | 
KSKVGWLIQLFHKAβ-(1-naphthyl) (KSKVGWLIQLFHK[1Nal]) [BPI.111] | 969.00 pmol | 7,232.08 pmol |  |  | 12,467.42 pmol |  | 
KSKVGWLIQLFHKW [BPI.108] | 661.05 pmol | 306,965.11 pmol |  |  | 1,413,131,872.57 pmol |  | 
KSKVGWLIQLFWKK [BPI.107] | 384.67 pmol | 4,665.64 pmol |  |  | b (no detectable activity up to 5 μg/well) |  | 
KSKVGWLISLFHKK [BPI.104] | 385.85 pmol | 1,376.42 pmol |  |  | 27,933.64 pmol |  | 
KSKVGWLITLFHKK [BPI.106] | 427.12 pmol | 3,413.80 pmol |  |  | b (no detectable activity up to 5 μg/well) |  | 
KSKVGWLIYLFHKK [BPI.125] | 428.85 pmol | 11,306.79 pmol |  |  | b (no detectable activity up to 5 μg/well) |  | 
KSKVKAβ-(1-naphthyl)LIQLFHKK (KSKVK[1Nal]LIQLFHKK) [BPI.116] | 73.82 pmol | 37,539.59 pmol |  |  | b (no detectable activity up to 5 μg/well) |  | 
KSKVKWLIQLWHKK [BPI.124] | 91.23 pmol | 3,916.32 pmol |  |  | b (no detectable activity up to 5 μg/well) |  | 
KWQLRSKGKIKIFKA [BPI.114] | 1,696.20 pmol | b (no detectable activity up to 5 μg/well) |  |  | b (no detectable activity up to 5 μg/well) |  | 
